The conditions of data set [1]: as compared to bacteriochlorophyll-a; Beems et al.; cited from earlier work.
Data set [2] in a line: Uptake, clearance and metabolism of bchla in tumor and liver (extraction, HPLC). Format: in vivo, DBA/2 Ha mice. The following applies: for concentration at 2 h: 2 h after injection; for concentration at 24 h: 24 h after injection. On the procedure: Uptake and clearance of bchla in tumor and liver were measured by extraction of the tumor or liver tissue with 1:1MeOH:CH2 Cl2, followed by HPLC analysis.
bchla Uptake in DBA/2 Ha Mice in SMT-F Tumor

For data set [3] the following is noted: cited from earlier work.
A further data set relates to skin of the foot. The data set can be described thus: Cutaneous photosensitivity of the foot of treated mice versus tumor response (therapeutic ratio). Type of data set: in vivo. On the procedure:
One of the undesirable side effects of photodynamic therapy using certain compounds is cutaneous photosensitivity unrelated to the target biological substrate. Accordingly, the effect of the treatment on the photosensitivity of the foot of the treated mice was measured. The response of the foot was measured as erythema and/or edema (or loss of skin or further damage).

Data set [4] in a line: Chemical and in vivo stability of bchla.
For a further data set, the system named is SMT-F tumors. Put plainly: Photodynamic treatment of SMT-F tumors in mice with bchla, tumor response. Type of data set: in vivo, DBA2/HaD mice. The method, then: DBA2/HaD mice were transplanted with SMT-F tumors. When the subcutaneous tumors reached 4.5-5.5 mm in diameter, the mice, in groups of five, were injected intravenously with the bchla solution of Example 1 in doses of 5-30 mg/kg. At a time 1 hour-5 days later, the tumor, previously shaved and depiliated, plus a margin of 2-3 mm was exposed to radiation of a wavelength in the range 630-800 nm using a Spectraphysics argon dye laser with Exciton LDS751 dye, tunable over the 700-800 nm range or a diode laser--e. g., Spectra Diode emitting in the 750-850 nm range or a Xenon arc lamp filtered with an interference filter to pass 90% of the 700 nm light ±60 nm at dose rates of 75-150 mW/cm^2. When the Xenon system was used, mild hyperthermia resulted (42° C. at 160 mW/cm^2). It is not known whether this temperature rise acts synergistically with bchla as has been shown with HpD and its active fraction.
Tumor response is shown in the table of FIG. 1 for the seventh day after light treatment which indicates regression, and at a time point at least 30 days after light treatment, which would indicate cure, if there had been no regrowth.
As shown in FIG. 1 good response to bchla was obtained, for example, after 2 hours at 5 mg/kg in the 670-790 nm range and after 24 hours after injection with 10 mg/kg and irradiated at 680-780 nm. […]

Where two headings read alike, the source gives them in different places.

On to `CCC1c2cc3[nH]c(c(CC(=O)O)c4nc(cc5[nH]c(cc(n2)C1C)c(C(C)=O)c5C)C(C)C4CCC(=O)O)c(C(=O)O)c3C` (stereo not shown) [bacteriochlorin-a], for which the Water solubility result in data set [1] was “enhanced water solubility”.

Turning to `CCC1C2=NC(=Cc3c(C(C)=O)c(C)c4[n]3[Mg][n]3c(c(C)c(C(=O)O)c3=C(CC(=O)O)C3=NC(=C4)C(C)C3CCC(=O)O)=C2)C1C` (stereo not shown) [bacteriochloro-phyllin-a], in data set [1], the Water solubility entry is recorded as “enhanced water solubility”.

Regarding `CCC1C2=NC(=Cc3c(C(C)=O)c(C)c4[n]3[Mg][n]3c(c(C)c5c3=C(C3=NC(=C4)C(C)C3CCC(=O)OCC=C(C)CCCC(C)CCCC(C)CCCC(C)C)C(C(=O)OC)C5=O)=C2)C1C` (stereo not shown) [bchla, Bacteriochlorophyll-a], the “Levels in tumor and liver maintained” value in data set [2] (24 or 48 hours) is listed as “maintained for as long as 24 or 48 hours”. Besides, the “Levels in tumor and liver” value in data set [2] (after 2 hours) is on record as “high levels”. Also, the “Composition of material in tumor” value in data set [2] (at 24 hours) was “demetallized but still contains phytyl”; in data set [2] (at 48 hours), “mainly material without phytyl and without Mg”; in data set [2] (two hours after injection), “essentially only bchla with a small amount of material wherein the phytyl group has hydrolyzed”. In addition, the “Time of partial conversion to bacteriopheophytin” value in data set [2] (liver) is 2 h; in data set [2] (tumor) it was ≥ 24 h. The concentration at 2 h in data set [2] (mouse, liver, 10 mg/kg, read-out: Tissue Level, Liver) is 44000 ng/g; in data set [2] (mouse, tumor, 10 mg/kg, read-out: Tissue Level, Tumor), 6140 ng/g; in data set [2] (mouse, tumor, 20 mg/kg, read-out: Tissue Level, Tumor), 16000 ng/g. For the same molecule, the concentration at 24 h in data set [2] (mouse, liver, 10 mg/kg, uncertain (*), conversion to other components, read-out: Tissue Level, Liver) is 49400 ng/g; in data set [2] (mouse, tumor, 20 mg/kg, uncertain (*), conversion to other components, read-out: Tissue Level, Tumor), 10000 to 19700 ng/g. Besides, in data set [2] (mouse, tumor, 10 mg/kg, 48 h after injection, uncertain (*), conversion to other components, read-out: Tissue Level, Tumor), the concentration at 48 h is 10700 ng/g. For the same molecule, in data set [3] (dilute acid), the “Stability towards loss of magnesium ion” value was “readily removed”. Further, the Stability towards oxidation result in data set [3] (especially in the presence of light) is on record as “readily oxidized”. For the same molecule, the “Expected persistence of sensitivity to light” value in the data set on skin of the foot (expected from the mouse foot response) is on record as “only a few days”. The “Sensitivity of the tumor and the skin of the foot as a function of time” value in the data set on skin of the foot (mice, FIG. 3) is “declined concomitantly”. Further, the Stability in vivo entry in data set [4] is given as “sufficiently stable in vivo”. Also, the Tumor response entry in the data set with SMT-F tumors (5 mg/kg i.v., 2 hours after injection, 670-790 nm range) was “good response”; with SMT-F tumors (10 mg/kg i.v., 24 hours after injection, irradiated at 680-780 nm), “good response”.

Source of the values: patent US5171741A, “Bacteriochlorophyll-a derivatives useful in photodynamic therapy” (Health Research, Inc., priority 1989, dated 1992).
